According to the supplement of paper PMC10307832:

How the values were obtained:
Test in all cases: relative viability (nuclei count vs DMSO), 5 days (fraction); higher = more cells survive
IMD-0354 + Dasatinib = compound: O=C(Nc1cc(C(F)(F)F)cc(C(F)(F)F)c1)c1cc(Cl)ccc1O [IMD-0354] + Cc1nc(Nc2ncc(C(=O)Nc3c(C)cccc3Cl)s2)cc(N2CCN(CCO)CC2)n1 [Dasatinib] (partner 0.075 µM)
Outline: (§1)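 Each reported value is a median over duplicate plates. It expresses relative viability: treated-well nuclei count divided by vehicle-well nuclei count. Lung cancer cell lines in 1536-well plates were dosed by pin tool a day after seeding, alone with one drug or with a fixed anchor-drug dose plus five library-drug doses (not always all listed) in √10 steps, and nuclei were counted after 5 days.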

IMD-0354 + Olaparib = compound: O=C(Nc1cc(C(F)(F)F)cc(C(F)(F)F)c1)c1cc(Cl)ccc1O [IMD-0354] + O=C(c1cc(Cc2n[nH]c(=O)c3ccccc23)ccc1F)N1CCN(C(=O)C2CC2)CC1 [Olaparib] (partner 8 µM)
Outline: as §1

CX-5461 + Lapatinib = compound: Cc1cnc(CNC(=O)c2c(=O)c3ccc(N4CCCN(C)CC4)nc3n3c2sc2ccccc23)cn1 [CX-5461] + CS(=O)(=O)CCNCc1ccc(-c2ccc3ncnc(Nc4ccc(OCc5cccc(F)c5)c(Cl)c4)c3c2)o1 [Lapatinib] (partner 2 µM)
Outline: as §1

CX-5461 + Foretinib = compound: Cc1cnc(CNC(=O)c2c(=O)c3ccc(N4CCCN(C)CC4)nc3n3c2sc2ccccc23)cn1 [CX-5461] + COc1cc2c(Oc3ccc(NC(=O)C4(C(=O)Nc5ccc(F)cc5)CC4)cc3F)ccnc2cc1OCCCN1CCOCC1 [Foretinib] (partner 0.25 µM)
Outline: as §1

In the case of UMC-11, the relative viability (IMD-0354 + Dasatinib; first compound 0.04 µM) is reported as 0.541, the relative viability (IMD-0354 + Dasatinib; first compound 0.1265 µM) is reported as 0.416 and the relative viability (IMD-0354 + Dasatinib; first compound 0.4 µM) is reported as 0.246. The relative viability (IMD-0354 + Dasatinib; first compound 1.265 µM) was 0.171, the relative viability (IMD-0354 + Dasatinib; first compound 4 µM) was 0.206 and the relative viability (IMD-0354 + Olaparib; first compound 0.04 µM) was 0.368. The relative viability (IMD-0354 + Olaparib; first compound 0.1265 µM) was 0.332, the relative viability (IMD-0354 + Olaparib; first compound 0.4 µM) was 0.278 and the relative viability (IMD-0354 + Olaparib; first compound 1.265 µM) was 0.182. For the same cell line, the relative viability (IMD-0354 + Olaparib; first compound 4 µM) was 0.178, the relative viability (CX-5461 + Lapatinib; first compound 0.01 µM) was 1.07 and the relative viability (CX-5461 + Lapatinib; first compound 0.03162 µM) was 1.01. The relative viability (CX-5461 + Lapatinib; first compound 0.1 µM) was 0.855, the relative viability (CX-5461 + Lapatinib; first compound 0.3162 µM) was 0.454 and the relative viability (CX-5461 + Lapatinib; first compound 1 µM) was 0.269. For the same cell line, the relative viability (CX-5461 + Foretinib; first compound 0.01 µM) was 1.02, the relative viability (CX-5461 + Foretinib; first compound 0.03162 µM) was 1.08 and the relative viability (CX-5461 + Foretinib; first compound 0.1 µM) was 0.906. The relative viability (CX-5461 + Foretinib; first compound 0.3162 µM) was 1.15 and the relative viability (CX-5461 + Foretinib; first compound 1 µM) was 0.336.
